Read-outs that look alike come from different tables or passages of the source.
How the values were obtained:
[1] = test system: TFEB; assay: TFEB nuclear localization in starved HeLa cells overexpressing TFEB, re-stimulated with media plus supplements or inhibitors (nuclear fractionation, Flag blot, immunofluorescence); type: cell-based; details: for TFEB nuclear translocation compared to starved media alone: EBSS media supplemented with growth factor or cytokine (FIG. 2f)
Excerpt: (A) Scatter Plot graphs displaying the logarithmic value of the fold change differences in the relative expression levels of 51 autophagy-related genes in HeLa cells cultured in different conditions. X-axis=control group. Y-axis=treated group. Circles represent genes with increased (red) or decreased (green) fold change. Comparisons were as indicated. (B) Chromatin immunoprecipitation (ChIP) analysis. […] Values were normalized to the input and plotted as relative enrichment over a mock control. Experiments were performed in triplicate. (C) qPCR analysis of TFEB-target gene expression in normal, starved, and in TFEB-siRNA starved cells. GAPDH and HPRT represents housekeeping genes, while ATG10, ATG9A and ATG4D represent control genes (non-TFEB target genes). (D-F) HeLa cells stably overexpressing TFEB were left untreated or nutrient starved for 4 h. (D) Five fields containing 50-100 cells/each were analyzed for TFEB nuclear localization. […] (E) Cells were subjected to nuclear/cytosolic fractionation and blotted with Flag antibody. H3 and tubulin were used as nuclear and cytosolic markers, respectively. (F) Nuclear fractions were blotted with Flag and H3 (loading control) antibodies. (G) Western blot analysis of Flag, tubulin and H3 in nuclear extracts prepared from normal, starved and starved/stimulated with normal media cells for 1 h (normal) or pretreated with AP-2 (AKT inhibitor), Rapamycin (mTOR inhibitor) and U0126 (MEK inhibitor) 1 h prior to media stimulation. Total extracts were used to verify the efficiency of the inhibitors. […] Starvation was performed where indicated. (All error bars represent standard deviations. T-test (unpaired) p value (*)<0.05, (**)<0.01)
Cytosolic and nuclear fractions were subjected to Flag immunoblotting. […] Error bars represent standard deviations.
Cells were seeded at 50% of confluence in 6 well dishes and serum starved overnight (ON). Normal medium was added the following day either in presence of DMSO or kinase inhibitors. Subcellular fractionation was carried out as previously reported.
To identify the mechanism of starvation-induced activation of TFEB, the applicants analyzed its subcellular localization and post-translational modifications in starved cells.

[2] = test system: TFEB; assay: TFEB molecular weight shift and localization in TFEB-3xFLAG HeLa cells stimulated with amino-acid rich medium plus inhibitor (FIG. 19B); type: cell-based; details: Torin 1 250 nM, Rapamycin 2.5 μM, U0126 50 μM
Description: (§1) FIG. 19 mTORC1 regulates TFEB. (A) Lysosomal stress inhibits mTOR signaling. Immunoblotting of protein extracts isolated from HeLa cells treated overnight, as indicated. Membranes were probed with antibodies for p-T202/Y204-ERK1/2, ERK1/2, p-T389-S6K, and S6K to measure ERK and mTORC1 activities. […] FLAG immunoblotting of cytosolic and nuclear fractions isolated from TFEB-3×FLAG HeLa cells cultured in amino acid-free media and subsequently stimulated as indicated for at least 3 h. Correct subcellular fractionation was verified with H3 and tubulin antibodies. (C, D) Effects and dose—response curves of ERK and mTOR inhibitors on TFEB nuclear translocation. […] After 3 h at 37° C. in RPMI medium containing one of each of the compounds, the cells were washed, fixed, and stained with DAPI and photographed by using confocal automated microscopy (Opera high content system, Perkin Elmer). (C) Representative images of test concentrations for each compound. Scale bars represent 30 μm. […] The EC50 for each compound was calculated using Prism software (see Materials and Methods for details). (E) Amino acids induce TFEB molecular weight shift. Immunoblotting of protein extracts isolated from HEK-293T cells transfected either TFEB-3×FLAG or with an empty vector were nutrient starved and stimulated for 50 minutes with amino acids (a.a.). Antibody used were p-T389-S6K, S6K and FLAG. (F) Rag knockdown induces TFEB nuclear translocation. HeLa cells stably expressing Flag-3×TFEB were infected with lentiviruses encoding a Short hairpin (Sh-) RNA targeting luciferase (control) or RagC and RagD mRNAs. […] TFEB localization was detected with a FLAG antibody, whereas tubulin and H3 were used as controls for the cytosolic and nuclear fraction, respectively; levels of S6K phosphorylation were used to test RagC and RagD knockdown efficiency.
(§2) The mouse anti-TFEB monoclonal antibody was purchased from My Biosource catalogue No. MBS 120432. To generate anti-pS142 specific antibodies, rabbits were immunized with the following peptide coupled to KLH: AGNSAPN{pSer}[…]. Following the fourth immunization, rabbits were sacrificed and the serum was collected. Non-phosphospecific antibodies were depleted from the serum by circulation through a column containing the nonphosphorylated antigene. The phosphospecific antibodies were subsequently purified using a column containing the phosphorylated peptide. Cells were lysed with M-PER buffer (Thermo) containing protease and phosphatase inhibitors (Sigma); nuclear/cytosolic fractions were isolated as above described. Proteins were separated by SDS-PAGE (Invitrogen; reduced NuPAGE 4-12% Bis-tris Gel, MES SDS buffer). If needed, the gel was stained using 20 ml Imperial Protein Stain (Thermo Fisher) at room temperature for 1 h and de-stained with water. […]

[3] = test system: TFEB; assay: High content TFEB-GFP nuclear translocation assay; type: cell-based; details: Homo sapiens, TFEB-GFP HeLa cells
Description: as §1, with “Immunoblotting” for “FIG. 19 mTORC1 regulates TFEB. (A) Lysosomal stress inhibits mTOR signaling. Immunoblotting”, “antibodies.” for “antibodies. (C, D) Effects and dose—response curves of ERK and mTOR inhibitors on TFEB nuclear translocation.”, “(C) Representative images of test concentrations for each compound.” left out, “(E) Amino acids induce TFEB molecular weight shift. Immunoblotting of protein extracts isolated from HEK-293T cells transfected either TFEB-3×FLAG or with an empty vector were nutrient starved and stimulated for 50 minutes with amino acids (a.a.).” left out, “(F) Rag knockdown induces TFEB nuclear translocation.” left out
After 3 hours at 37° C. in RPMI medium cells were washed, fixed, and stained with DAPI. For the acquisition of the images, ten pictures per each well of the 384-well plate were taken by using confocal automated microscopy (Opera high content system, Perkin Elmer). A dedicated script was developed to perform the analysis of TFEB localization on the different images (Acapella software, Perkin Elmer). The script calculates the ratio value resulting from the average intensity of nuclear TFEB-GFP fluorescence divided by the average of the cytosolic intensity of TFEB-GFP fluorescence. The results were normalized using negative (RPMI medium) and positive (HBSS starvation) control samples in the same plate. The data are represented by the percentage of nuclear translocation at the different concentrations of each compound using Prism software (GraphPad software). The EC50 for each compound was calculated using non-linear regression fitting (Prism software).
In order to find additional small molecules able to induce the translocation of TFEB from the cytosol to the nucleus, the applicants developed a cell-based high content assay using stable HeLa cells overexpressing TFEB fused to the green fluorescent protein (TFEB-GFP). In the assay imaging of treated cells is acquired by an automated confocal microscope (OPERA system) and the analysis of those images with Acapella image software calculates the ratio of the average of fluorescence intensity of TFEB-GFP between the cytosol and nucleus of the cell (see Materials and methods for details). […] They tested ten concentrations for each inhibitor.

[4] = test system: mTORC1; assay: mTORC1 activity by level of p-P70S6K in HeLa cells treated overnight (FIG. 19A); type: cell-based
Description: as §1, with “Immunoblotting” for “FIG. 19 mTORC1 regulates TFEB. (A) Lysosomal stress inhibits mTOR signaling. Immunoblotting”, “antibodies.” for “antibodies. (C, D) Effects and dose—response curves of ERK and mTOR inhibitors on TFEB nuclear translocation.”, “(C) Representative images of test concentrations for each compound.” left out, “(E) Amino acids induce TFEB molecular weight shift. Immunoblotting of protein extracts isolated from HEK-293T cells transfected either TFEB-3×FLAG or with an empty vector were nutrient starved and stimulated for 50 minutes with amino acids (a.a.).” left out, “(F) Rag knockdown induces TFEB nuclear translocation.” left out

[5] = test system: TFEB target genes; assay: qPCR of TFEB target genes in primary hepatocytes (FIG. 21B, C); type: cell-based, mouse; details: hepatocytes from TFEB conditional knockout mice (Tcfebflox/flox; alb-CRE)
Excerpt: (§3) Subsequently, cells were lysed and protein extracts were immunoblotted with the indicated antibodies. […] Quantitative PCR (qPCR) of TFEB target genes in primary hepatocytes from control (flox/flox) and Tcfeb−/− (flox/flox; alb-Cre) mice. […] The expression levels are shown as % increased expression of the treated versus the corresponding untreated samples. Values represent means±s.d. of three independent hepatocyte preparations (three mice/genotype). Student's t-test (two tailed) *P-value ≦0.05.

[6] = test system: TFEB; assay: Lysosomal stress: TFEB-3xFLAG nuclear/cytoplasmic fractionation immunoblot in HeLa and HEK-293T cells (FIG. 18); type: cell-based; details: treated overnight; chloroquine 100 μM, Salicylihalamide A 2 μM
Excerpt: FIG. 18 Lysosomal stress induces TFEB nuclear translocation. […] Histone 3 (H3) and tubulin were used as nuclear and cytosolic markers, respectively. Blots are representative of triplicate experiments.
as §2
TFEB subcellular localization was then analysed in HeLa and HEK-293T cells transiently transfected with a TFEB-3×FLAG plasmid and treated overnight with inhibitors of lysosomal function.

[7] = target: mTOR (Mus musculus, UniProt Q9JLN9); details: primary hepatocytes treated overnight
Excerpt: as §3

[8] = test system: long-lived protein degradation in TFEB-overexpressing cells; assay: Degradation of long-lived proteins (FIG. 8); type: cell-based; details: 3-MA added during 4 h incubation
Description: FIG. 8 TFEB increases autophagic proteolysis. Rate of long-lived protein degradation in TFEB-overexpressing, TFEB-depleted and control cells in either normal or starved condition. 3-methyl adenine (3MA) was added where indicated (Error bars represent standard deviations. p value (*)<0.05).
Sub-confluent cells were incubated with L-U^14C-serine for 20 h and chased for 1 h with cold media to degrade short-lived proteins. Subsequently cells were incubated with either normal media or starvation media (eventually in the presence of 3-MA) for 4 h. The rate of long-lived protein degradation was calculated from the ratio of soluble radioactivity in the media to that insoluble in the acid-precipitable cell pellet.
The applicants next measured the rate of delivery of autophagosome to lysosome using an RFP-GFP tandem tagged LC3 protein (9), which discriminates early autophagic organelles (GFP-positive/mRFP-positive) from acidified autolysosomes (GFP-negative/mRFP-positive), as the GFP signal (but not the mRFP) is quenched inside acidic compartments (9). […] Functional evidence of TFEB role in the regulation of autophagy came from the observation that degradation of long-lived proteins was enhanced by TFEB overexpression, and reduced by TFEB knock-down. This enhancement was abolished by the autophagy inhibitor 3-methyl adenine (3-MA) (10) (FIG. 8).

[9] = mobilization of cytosolic TFEB to the nucleus, 3 h at 37° C. in RPMI, ten concentrations 50 μM to 2.54 nM, 4 runs, read-out: Average EC50

## insulin
[1]
  TFEB nuclear translocation compared to starved media alone: significant inhibition

## N#CC(=C(/N)Sc1ccccc1N)/C(C#N)=C(\N)Sc1ccccc1N [U0126]
[2]
  TFEB molecular weight shift induced by nutrients: only a partial TFEB molecular weight shift
[3]; 3 h, ten concentrations 2.54 nM to 50 μM (FIG. 19D), read-out: EC50, TFEB nuclear translocation
  EC50: 80.4 µM
[1]; starved cells stimulated with normal medium supplemented with kinase inhibitor (FIG. 2g, 11b)
  TFEB nuclear localization: TFEB nuclear localization, at level similar to starvation

## CCN(CC)CCCC(C)Nc1ccnc2cc(Cl)ccc12 (stereo not drawn) [chloroquine]
[4]
  mTORC1 activity as level of p-P70S6K: inhibited mTORC1 activity
[5]
  transcriptional response of TFEB target genes versus control hepatocytes: significantly blunted
[6]
  nuclear translocation of exogenously expressed TFEB: induced nuclear translocation
[7]
  mTOR activity as level of p-S6K: inhibited mTOR

## LIF: cytokine supplemented to EBSS media
[1]
  TFEB nuclear translocation compared to starved media alone: Almost no effect

## CC/C=C\C=C/C(=O)N/C=C/C[C@H]1C[C@@H](O)[C@@H](C)C/C=C/Cc2cccc(O)c2C(=O)O1 [Salicylihalamide A]
[4]
  mTORC1 activity as level of p-P70S6K: inhibited mTORC1 activity
[6]
  nuclear translocation of exogenously expressed TFEB: induced nuclear translocation

## EGF: growth factor supplemented to EBSS media (NSDSECPLSHDGYCLHDGVCMYIEALDKYACNCVVGYIGERCQYRDLKWWELR; UniProt P01133 971-1023, looked up)
[1]
  TFEB nuclear translocation compared to starved media alone: significant inhibition

## Cn1cnc(N)c2ncnc1-2 [3-methyl adenine]
[8]
  enhancement of long-lived protein degradation by TFEB overexpression: abolished

## Oc1cccc(-c2nc(N3CCOCC3)c3oc4ncccc4c3n2)c1 [PI103]
[3]; [9]
  EC50: < 7 µM

## O=C1c2ccccc2-c2n[nH]c3cccc1c23 [SP600125]
[3]; [9]
  EC50: > 15 µM
